Test results from patent US8536202B2, “Triazole-substituted anthranilamides as pesticides” (Bayer Cropscience AG, priority 2010, dated 2013).
Read-outs that look alike come from different tables or passages of the source.

Key:
[1] = tested on: larvae of the mustard beetle (Phaedon cochleariae); test: Phaedon test (PHAECO spray treatment); format: in vivo; conditions: 168 h, 100 g/ha, after 7 days, read-out: activity in %
Method in brief: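 Compound dissolved in acetone/dimethylformamide with alkylaryl polyglycol ether emulsifier, then diluted with emulsifier-containing water to test concentration for spray treatment of Phaedon cochleariae larvae. Activity scored after 7 days as % larvae killed (100% = all dead, 0% = none).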

[2] = tested on: caterpillars of the armyworm (Spodoptera frugiperda); test: Spodoptera frugiperda test (SPODFR spray treatment); format: in vivo; conditions: 168 h, 100 g/ha, after 7 days, read-out: activity in %
Method in brief: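 Maize leaf discs sprayed with compound diluted in emulsifier-containing water (acetone/DMF solvent, alkylaryl polyglycol ether emulsifier), dried, then infested with armyworm caterpillars. Kill scored after 7 days as % mortality, 100% = all caterpillars dead, 0% = none.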

[3] = tested on: Lucilia cuprina larvae; test: Lucilia cuprina test (LUCICU); format: in vivo; conditions: 48 h, read-out: kill in %
Procedure: (§1) Solvent: dimethyl sulphoxide
(§2) An appropriate preparation of active compound is prepared by mixing 10 mg of active compound with 0.5 ml of dimethyl sulphoxide and diluting the concentrate with water to the desired concentration.
Vessels containing horse meat treated with the preparation of active compound at the desired concentration are populated with approximately 20 Lucilia cuprina larvae.
After 2 days, the kill in % is ascertained. Here, 100% means that all of the larvae have been killed; 0% means that no larvae have been killed.

[4] = log P determination by HPLC on reversed-phase columns (EEC Directive 79/831 Annex V.A8); format: physicochemical; conditions: pH 2.7
Method in brief: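 log P from reversed-phase LC-MS retention at pH 2.7, 0.1% formic acid water/acetonitrile gradient 10–95% acetonitrile. Calibrated against C3–C16 unbranched alkan-2-ones, interpolating linearly between adjacent alkanones.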

[5] = tested on: Boophilus microplus; test: Boophilus microplus test (BOOPMI injection); format: in vivo; conditions: Rhipicephalus microplus, 168 h, 20 μg/animal, after 7 days, read-out: activity in % (no fertile eggs laid)
Procedure: as §1
An appropriate preparation of active compound is prepared by mixing 10 mg of active compound with 0.5 ml of solvent and diluting the concentrate with solvent to the desired concentration. The solution of active compound is injected into the abdomen (Boophilus microplus), and the animals are transferred to dishes and kept in a climatized room. Activity is assessed by deposition of fertile eggs.
After 7 days, the activity in % is assessed. Here, 100% means that none of the ticks has laid fertile eggs.

[6] = tested on: green peach aphid (Myzus persicae); test: Myzus test (MYZUPE spray treatment), Use Example 4; format: in vivo; conditions: 144 h, 100 g/ha, after 6 days, read-out: activity in %
Method in brief: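 Compound was formulated in acetone/dimethylformamide with alkylaryl polyglycol ether emulsifier and diluted in emulsifier-containing water. It was sprayed onto Chinese cabbage leaf discs infested with all stages of Myzus persicae. Mortality (%) was scored after 6 days, where 100% means all aphids killed.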

[7] = tested on: adult Musca domestica; test: Musca domestica test (MUSCDO); format: in vivo; conditions: 48 h, read-out: kill in %
Procedure: as §1
as §2, with “concentration. Vessels containing a sponge treated with the preparation of active compound at the desired concentration are populated with adult Musca domestica.” for “concentration.”
After 2 days, the kill in % is ascertained. Here, 100% means that all of the flies have been killed; 0% means that no flies have been killed.

[8] = reversed-phase C18 HPLC column, HPLC on reversed-phase columns (C 18), EEC Directive 79/831 Annex V.A8, read-out: logP

Compound | pest or weed control at 100 g/ha [1] [%] | pest or weed control at 100 g/ha [2] [%] | pest or weed control at 100 ppm ([3]; 100 ppm, after 2 days) [%] | chromatographic logP [4, 8] | pest or weed control at 0.02 mg [5] [%] | pest or weed control at 100 g/ha [6] [%] | pest or weed control at 100 ppm [3] [%] | chromatographic logP [4] | pest or weed control at 100 ppm [7] [%] | pest or weed control at 100 ppm ([7]; 100 ppm, after 2 days) [%]
Cc1cc(C#N)cc(C(=O)NC(C)(C)C)c1NC(=O)c1cc(Cn2cc(C(F)(F)F)nn2)nn1-c1ncccc1Br [Example 7] | 100 | 100 | 100 | 3.44 | 100 | 100 |  |  |  | 
CNC(=O)c1cc(Cl)cc(C)c1NC(=O)c1cc(Cn2nnc3cc(C(F)(F)F)ccc32)nn1-c1ncccc1Cl [Example 70] | 100 | 100 |  |  | 100 | 100 | 100 | 3.13 |  | 
CNC(=O)c1cc(C#N)cc(C)c1NC(=O)c1cc(Cn2ncc(C(F)(F)F)n2)nn1-c1ncccc1Cl [Example 124] | 100 | 100 |  |  | 100 | 100 | 100 | 2.68 | 80 | 
Cc1cc(C#N)cc(C(=O)NC(C)C)c1NC(=O)c1cc(Cn2ncc(C(F)(F)F)n2)nn1-c1ncccc1Cl [Example 128] | 100 | 100 |  |  | 100 | 100 | 100 | 3.1 | 80 | 
Cc1cc(C#N)cc(C(=O)NC(C)(C)C)c1NC(=O)c1cc(Cn2ncc(C(F)(F)F)n2)nn1-c1ncccc1Cl [Example 129] | 100 | 100 |  |  | 100 | 100 | 100 | 3.46 | 80 | 
Cc1cc(Cl)cc(C(N)=O)c1NC(=O)c1cc(Cn2ncc(C(F)(F)F)n2)nn1-c1ncccc1Cl [Example 134] | 100 | 100 |  |  | 100 | 100 | 100 | 2.7 | 100 | 
CNC(=O)c1cc(Cl)cc(C)c1NC(=O)c1cc(Cn2ncc(C(F)(F)F)n2)nn1-c1ncccc1Cl [Example 135] | 100 | 100 |  |  | 100 | 90 | 100 | 2.99 |  | 
Cc1cc(Cl)cc(C(=O)NC(C)C2CC2)c1NC(=O)c1cc(Cn2ncc(C(F)(F)F)n2)nn1-c1ncccc1Cl (stereo not drawn) [Example 136] | 100 | 100 |  |  | 100 |  | 100 | 3.8 |  | 
CC(NC(=O)c1cc(Cl)cc(Cl)c1NC(=O)c1cc(Cn2ncc(C(F)(F)F)n2)nn1-c1ncccc1Cl)C1CC1 (stereo not drawn) [Example 147] | 100 | 100 |  |  | 100 |  | 100 | 3.73 |  | 
CC(C)(C)NC(=O)c1cc(Cl)cc(Cl)c1NC(=O)c1cc(Cn2ncc(C(F)(F)F)n2)nn1-c1ncccc1Cl [Example 151] | 100 | 100 |  |  | 100 | 100 | 100 | 3.8 |  | 
CSC[C@H](C)NC(=O)c1cc(Cl)cc(Cl)c1NC(=O)c1cc(Cn2ncc(C(F)(F)F)n2)nn1-c1ncccc1Cl [Example 155] | 100 | 100 |  |  | 100 | 100 | 100 | 3.64 |  | 
Cc1cc(I)cc(C(=O)NC(C)(C)C)c1NC(=O)c1cc(Cn2ncc(C(F)(F)F)n2)nn1-c1ncccc1Cl [Example 162] | 100 | 100 |  |  | 100 |  | 100 | 4.11 |  | 
CNC(=O)c1cc(Br)cc(C)c1NC(=O)c1cc(Cn2ncc(C(F)(F)F)n2)nn1-c1ncccc1Cl [Example 172] | 100 | 100 |  |  | 100 | 100 | 100 | 3.1 | 80 | 
Cc1cc(Br)cc(C(=O)NC2CC2)c1NC(=O)c1cc(Cn2ncc(C(F)(F)F)n2)nn1-c1ncccc1Cl [Example 174] | 100 | 100 |  |  | 100 | 100 | 100 | 3.28 |  | 
Cc1cc(Br)cc(C(=O)NC(C)C)c1NC(=O)c1cc(Cn2ncc(C(F)(F)F)n2)nn1-c1ncccc1Cl [Example 175] | 100 | 100 |  |  | 100 |  | 100 | 3.55 |  | 
Cc1cc(C#N)cc(C(=O)NC(C)C2CC2)c1NC(=O)c1cc(Cn2cc(C(F)(C(F)(F)F)C(F)(F)F)nn2)nn1-c1ncccc1Cl (stereo not drawn) [Example 218] | 100 | 100 | 100 | 3.73 | 100 |  |  |  |  | 85
Cc1cc(Cl)cc(C(N)=O)c1NC(=O)c1cc(Cn2cc(C(F)(C(F)(F)F)C(F)(F)F)nn2)nn1-c1ncccc1Cl [Example 231] | 100 | 100 |  |  | 100 | 100 | 100 | 3.16 | 80 | 
Cc1cc(Cl)cc(C(=O)NC2CC2)c1NC(=O)c1cc(Cn2cc(C(F)(C(F)(F)F)C(F)(F)F)nn2)nn1-c1ncccc1Cl [Example 232] | 100 | 100 |  |  | 100 | 80 | 100 | 3.61 | 100 | 
Cc1cc(I)cc(C(N)=O)c1NC(=O)c1cc(Cn2cc(C(F)(C(F)(F)F)C(F)(F)F)nn2)nn1-c1ncccc1Cl [Example 239] | 100 | 100 |  |  | 100 | 100 | 100 | 3.35 | 100 | 
CNC(=O)c1cc(Cl)cc(Cl)c1NC(=O)c1cc(Cn2cc(C(F)(C(F)(F)F)C(F)(F)F)nn2)nn1-c1ncccc1Cl [Example 241] | 100 | 100 |  |  | 100 | 100 | 100 | 3.31 | 80 | 
NC(=O)c1cc(Cl)cc(Cl)c1NC(=O)c1cc(Cn2cc(C(F)(C(F)(F)F)C(F)(F)F)nn2)nn1-c1ncccc1Cl [Example 247] | 100 | 100 |  |  | 100 |  | 100 | 3.13 | 100 | 
Cc1cc(Cl)cc(C(N)=O)c1NC(=O)c1cc(Cn2ncc(C(F)(C(F)(F)F)C(F)(F)F)n2)nn1-c1ncccc1Cl [Example 263] | 100 | 100 |  |  | 100 | 80 | 100 | 3.48 | 100 | 
